Assay results from US20260001853A1, “ASCORBIC ACID DERIVATIVE OR SALT THEREOF, AND COSMETIC THEREOF” (SEIWA KASEI COMPANY, LIMITED, priority 2022, published 2026).

Key:
[1] = test system: Normal human epidermal keratinocytes; experiment: Antioxidant test (ROS production after H2O2 treatment, DCFHDA probe); type: cell-based; details: sample at a concentration of 10 mM or less, 24 h culture, 0.2 mM H2O2 for 2 hours, ROS per unit protein, N=4
Experimental: Normal human epidermal keratinocytes were seeded in a 96-well plate using KG2 medium to a cell density of 2.0×10^4 cells/well. After 24 hours of pre-incubation, samples adjusted to a predetermined concentration with KG2 medium were added to each well. After 24 hours of culture and removal of the medium, the wells were washed with HBSS(−) and the ROS-reactive fluorescent probe DCFHDA was allowed to incorporate for 30 minutes. The wells were washed again with HBSS(—), treated with 0.2 mM H2O2, and cultured for 2 hours. The fluorescence intensity was measured, and the amount of ROS produced per unit protein was calculated by dividing the fluorescence intensity by the amount of protein quantified by the BCA method.
The antioxidant effect when the sample was measured at a concentration of 10 mM or less was expressed as follows. The measurement was performed with N=4. • <20%: ± • 20-40%: + • 40-70%: ++ • 70-100%: +++

[2] = test system: Normal human dermal fibroblasts (NHDF); experiment: Hyaluronic acid production promoting effect (ELISA of supernatant); type: cell-based; details: amount of hyaluronic acid produced, % with control group taken as 100%; sample at 10 mmol/L or less, 48 hours, N=3
Method in brief: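 NHDF pre-incubated 24 h, then exposed to samples at 10 mmol/L or less in serum-free D-MEM for 48 h. Supernatant hyaluronic acid quantified by ELISA, N=3, expressed as % of control (100%) and scored ± (<100%), + (100-120%), ++ (120-150%), +++ (150%).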

B16 melanoma 4A5 cells = experiment: Melanin production inhibitory effect (theophylline-induced melanin production); type: cell-based, mouse; details: melanin production inhibition rate, sample at a concentration of 10 mM or less, 3 days culture, theophylline 1 mmol/L, N=4
Method in brief: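 Mouse B16 4A5 cells cultured 24 h in D-MEM/10% FBS, then 3 days with 1 mmol/L theophylline (final) plus sample at 10 mM or less. Melanin measured by alkali solubilization (1 mol/L NaOH, 60° C, 30 min, A405) against synthetic melanin standard, normalized to BCA protein. Inhibition rate relative to normal and control groups, scored as graded ranges; N=4.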

[3] = test system: Normal human dermal fibroblasts; experiment: Collagen production promoting effect (ELISA of supernatant); type: cell-based; details: amount of collagen produced, % with control group taken as 100%; sample at 10 mmol/L or less, 48 hours, N=3
Method in brief: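 Fibroblasts in D-MEM with 5% FBS were pre-incubated 24 h, then exposed to samples for 48 h. Free collagen in supernatant quantified by ELISA (N=3), expressed as % of control (control = 100%) at ≤10 mmol/L, scored ± (<100%), + (100-120%), ++ (120%).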

[4] = Stability test (residual rate by HPLC, odor, coloring); type: physicochemical; details: 1% aqueous solution; for Coloring / Odor: total score of 10 panelists
Method in brief: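 A 1% aqueous solution of each test sample was brought to pH 6 with dilute potassium hydroxide aqueous solution, sealed in a 50 mL screw tube, and stored. Residual rate was calculated from HPLC peak area on a Shimadzu liquid chromatograph. Ten panelists scored odor and coloring on a 1–3 scale each, and the summed scores were classified.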

[5] = pH 6, stored at 50° C., four weeks later
[6] = pH 6, stored at 50° C., two weeks later

SMILES | Residual rate ([4]; pH 6, 50° C., initial) | Residual rate [4, 5] | Residual rate [4, 6] | Antioxidant Effects [1] | Hyaluronic acid production promoting effect [2] | Melanin production inhibition effect (B16 melanoma 4A5 cells) | Collagen production promoting effect [3] | Coloring ([4]; pH 6, 50° C., initial) | Odor ([4]; pH 6, 50° C., initial) | Coloring [4, 5] | Odor [4, 5] | Coloring [4, 6] | Odor [4, 6]
O=C1O[C@H]([C@@H](O)CO)C(O)=C1OCC(O)CO (some centres unmarked) [2-O-glyceryl ascorbic acid, reference compound] | – | – | – | ± (<20%: ±) | + (100-120%: +) | + (20-40%: +) | + (100-120%: +) | – | – | – | – | – | –
CCOC1=C(OCC(C)(C)O)C(=O)O[C@@H]1[C@@H](O)CO [Synthesis Example 3, 2-O-(2-hydroxyisobutyl)-3-O-ethylascorbic acid] | – | – | – | ++ (40-70%: ++) | – | +++ (60-100%: +++) | ++ (120%: ++) | – | – | – | – | – | –
CCOC1=C(OCC(C)(C)O)[C@@H]([C@@H](O)CO)OC1=O [Synthesis Example 18, 2-O-ethyl-3-O-(2-hydroxyisobutyl) ascorbic acid] | – | – | – | ++ (40-70%: ++) | ++ (120-150%: ++) | +++ (60-100%: +++) | ++ (120%: ++) | – | – | – | – | – | –
CCCCCCCCCCCCCCC(O)COC1=C(OCC(C)(C)O)[C@@H]([C@@H](O)CO)OC1=O (some centres unmarked) [Synthesis Example 42, 3-O-(2-hydroxyisobutyl)-2-O-(2-hydroxyhexadecyl) ascorbic acid] | ⊚ (⊚: 90% or more) | ⊚ (⊚: 90% or more) | ⊚ (⊚: 90% or more) | – | +++ (150%: +++) | ++ (40-60%: ++) | + (100-120%: +) | ◯ (◯: Total score of 10 panelists is 25 or more) | ◯ (◯: Total score of 10 panelists is 20-24) | ◯ (◯: Total score of 10 panelists is 25 or more) | ◯ (◯: Total score of 10 panelists is 20-24) | ◯ (◯: Total score of 10 panelists is 25 or more) | ◯ (◯: Total score of 10 panelists is 20-24)
CC(C)(O)COC1=C(OCC(O)c2ccccc2)C(=O)OC1C(O)CO (centres unmarked) [Synthesis Example 43, 3-O-(2-hydroxyisobutyl)-2-O-(2-hydroxyethylbenzene) ascorbic acid] | ⊚ (⊚: 90% or more) | ⊚ (⊚: 90% or more) | ⊚ (⊚: 90% or more) | – | ++ (120-150%: ++) | ++ (40-60%: ++) | ++ (120%: ++) | ◯ (◯: Total score of 10 panelists is 25 or more) | ◯ (◯: Total score of 10 panelists is 20-24) | ◯ (◯: Total score of 10 panelists is 25 or more) | ◯ (◯: Total score of 10 panelists is 20-24) | ◯ (◯: Total score of 10 panelists is 25 or more) | ◯ (◯: Total score of 10 panelists is 20-24)

More lines, main results first:

Residual rate ([4]; pH 6, 50° C., initial) | Residual rate [4, 5] | Residual rate [4, 6] | SMILES | Antioxidant Effects [1] | Hyaluronic acid production promoting effect [2] | Melanin production inhibition effect (B16 melanoma 4A5 cells) | Collagen production promoting effect [3] | Coloring ([4]; pH 6, 50° C., initial) | Odor ([4]; pH 6, 50° C., initial) | Coloring [4, 5] | Odor [4, 5] | Coloring [4, 6] | Odor [4, 6]
⊚ (⊚: 90% or more) | Δ (Δ: 60% or more, less than 80%) | ◯ (◯: 80% or more, less than 90%) | O=C1O[C@H]([C@@H](O)CO)C(OCC(O)CO)=C1O (some centres unmarked) [3-O-glyceryl ascorbic acid, reference compound] | + (20-40%: +) | + (100-120%: +) | + (20-40%: +) | + (100-120%: +) | ◯ (◯: Total score of 10 panelists is 25 or more) | ◯ (◯: Total score of 10 panelists is 20-24) | Δ (Δ: Total score of 10 panelists is 16-24) | Δ (Δ: Total score of 10 panelists is 16-19) | Δ (Δ: Total score of 10 panelists is 16-24) | Δ (Δ: Total score of 10 panelists is 16-19)
⊚ (⊚: 90% or more) | ⊚ (⊚: 90% or more) | ⊚ (⊚: 90% or more) | CC(C)(O)COC1=C(O)[C@@H]([C@@H](O)CO)OC1=O [Synthesis Example 1, 2-O-(2-hydroxyisobutyl) ascorbic acid] | ++ (40-70%: ++) | + (100-120%: +) | ++ (40-60%: ++) | ++ (120%: ++) | ◯ (◯: Total score of 10 panelists is 25 or more) | ◯ (◯: Total score of 10 panelists is 20-24) | ◯ (◯: Total score of 10 panelists is 25 or more) | ◯ (◯: Total score of 10 panelists is 20-24) | ◯ (◯: Total score of 10 panelists is 25 or more) | ◯ (◯: Total score of 10 panelists is 20-24)
⊚ (⊚: 90% or more) | ⊚ (⊚: 90% or more) | ⊚ (⊚: 90% or more) | CC(C)(O)COC1=C(O)C(=O)O[C@@H]1[C@@H](O)CO [Synthesis Example 2, 3-O-(2-hydroxyisobutyl) ascorbic acid] | ++ (40-70%: ++) | + (100-120%: +) | + (20-40%: +) | + (100-120%: +) | ◯ (◯: Total score of 10 panelists is 25 or more) | ◯ (◯: Total score of 10 panelists is 20-24) | ◯ (◯: Total score of 10 panelists is 25 or more) | ◯ (◯: Total score of 10 panelists is 20-24) | ◯ (◯: Total score of 10 panelists is 25 or more) | ◯ (◯: Total score of 10 panelists is 20-24)
